Legend:
PCSK9 [1] = experiment: Immunofluorescence of PCSK9 in carotid artery, mouse arteriosclerosis model; format: in vivo; details: 10 μg/g/day, compared to control
Procedure: (§1) Carotid artery ligation was performed one week after injection of AAV-PCSK9 Virus (1×10^11 IFU/mL) and noranhydroicaritin (10 μg/g/day). After 3 weeks of ligation, it was confirmed whether the atherosclerosis model was completed, and gross plaque imaging and immunofluorescence were performed to confirm the arteriosclerosis inhibitory effect of noranhydroicaritin.
(§2) Furthermore, the arteriosclerosis inhibitory effect of noranhydroicaritin was confirmed using immunofluorescence. Specifically, a mouse carotid artery was obtained and fixed in 4% PFA for one day, and then prepared into a block. As the inflammatory response in blood vessels progresses, the arteriosclerosis worsens, and thus the marker […] of macrophages causing arteriosclerotic inflammatory response and TNF-α, IL-1B, and MCP-1, which are pro-inflammatory cytokines secreted when the inflammatory response occurs, were stained. Staining was performed using the antibody for each of CAP1(1:200), PCSK9(1:100), F4/80(1:100), TNF-α(1:100), […], and MCP-1(1:100), then imaging was performed using a confocal microscope, and […] was evaluated.

MCP-1 = experiment: Immunofluorescence of MCP-1 in carotid artery, mouse arteriosclerosis model; format: in vivo; details: 10 μg/g/day
Procedure: as §1, §2

HEK293T cells = experiment: MTT cell viability of HEK293T cells; format: cell-based, human; details: 20 μM, 24 hours, relative to DMSO negative control
Procedure: In order to confirm the toxicity of noranhydroicaritin to cells, HEK293T (human embryonic kidneys) were treated with noranhydroicaritin at various concentrations, and the cell viability at each concentration of noranhydroicaritin was calculated through the MTT screening method.
Specifically, HEK293T cells were suspended in DMEM (Welgene Inc.) medium containing 10% fetal bovine serum at a concentration of 1×10^5 cells/mL, and 100 μL thereof was inoculated into each well of a 96-well plate. After 4 hours, the HEK293T cells in the well plate were treated with noranhydroicaritin samples at concentrations of 2.5 μM, 5 μM, 10 μM, and 20 μM. After incubation for 24 hours, 5 μL of MTT (5 mg/mL) was added to the well plate, and the cells were further incubated for 4 hours. Thereafter, the medium was removed, 100 μL of DMSO was added to the well plate, the reaction was conducted, and then the absorbance was measured at 570 nm. As a control, cholesterol synthesis inhibitors atorvastatin (Ato) and rosuvastatin (Ros) were used. The cell viability was calculated according to the mathematical formula as a value relative to 100% of the value for the negative control treated only with DMSO. The results are illustrated in FIG. 2.

PPARα = PPARα expression in HepG2 cells (RealTime-PCR, immunohistochemistry); format: cell-based, human
Procedure: In order to confirm the effect of increasing the expression of PPARα and PPARγ of noranhydroicaritin, PCR using PPARα primers and immunohistochemistry targeting PPARα and PPARγ were performed to confirm the expression levels.
Using cDNA synthesized with RNA according to the method of Example 4, the quantities of PPARα mRNA and PPARγ mRNA were confirmed through RealTime-PCR analysis. The group treated only with DMSO was used as a negative control. For immunohistochemistry, HepG2 cells were attached to a slide chamber, then treated with noranhydroicaritin at 20 μM, and incubated. After fixation with formalin, the HepG2 cells were stained with antibodies targeting PPARα and PPARγ, and treated with DAPI to stain nuclei, and the degree of fluorescent expression was confirmed using a confocal microscope.

PCSK9 [2] = experiment: Immunoblot of PCSK9 in HepG2 cells, noranhydroicaritin and pravastatin, pitavastatin, fluvastatin or simvastatin (Table 1); format: cell-based, human; details: noranhydroicaritin 20 μM singly, untreated = 1 ± 0.04
Procedure: (§3) The cells aliquoted by the method of Example 7 were treated with noranhydroicaritin or each statin (pravastatin, pitavastatin, fluvastatin, or simvastatin) singly or with noranhydroicaritin and a statin (pravastatin, pitavastatin, fluvastatin, or simvastatin) simultaneously, and the proteins were extracted. On an SDS-polyacrylamide gel, 30 μg of each protein was electrophoresed, and attached to a membrane, and then protein expression levels were confirmed using the respective antibodies: PCSK9 and LDLR.

PCSK9 [3] = experiment: Immunoblot of PCSK9 in HepG2 cells, noranhydroicaritin and statin singly or in combination; format: cell-based, human; details: treated singly
Procedure: as §3, with “or a” for “or each”, “statin (atorvastatin” for “statin (pravastatin, pitavastatin, fluvastatin,”, “or rosuvastatin)” for “or simvastatin)”, “antibodies: phospho-AMPK, PCSK9, LDLR,” for “antibodies: PCSK9”, “and PPARγ.” for “and LDLR.”

TNF-α = experiment: Immunofluorescence of TNF-α in carotid artery, mouse arteriosclerosis model; format: in vivo; details: 10 μg/g/day
Procedure: as §1, §2

With CC(C)=CCc1c(O)cc(O)c2c(=O)c(O)c(-c3ccc(O)cc3)oc12 [Noranhydroicaritin, noranhydroicaritin] the “expression of PCSK9 (immunofluorescence)” value (PCSK9 [1]) was “significantly decreased”, the “expression of MCP-1 (immunofluorescence)” value (MCP-1) was “decreased” and the cell viability (HEK293T cells) was ≥ 90%. For the same compound, the “expression of PPARα” value (PPARα) was “increased in a concentration-dependent manner”, the PCSK9 (PCSK9 [2]) was 0.34 ± 0.02 and the “quantity of PCSK9 (immunoblot)” value (PCSK9 [3]) was “decreased”. For the same compound, the “expression of TNF-α (immunofluorescence)” value (TNF-α) was “decreased”.

From patent US20220151979A1, “COMPOSITION FOR PREVENTION OR TREATMENT OF CARDIOVASCULAR AND METABOLIC DISEASE COMPRISING NORANHYDROICARITIN” (SEOUL NATIONAL UNIVERSITY HOSPITAL, priority 2019, published 2022)
